From ChEMBL document CHEMBL5058564, “EUbOPEN Chemogenomics Library 2 (Incucyte)” (2022)
Where a SMILES comes first, the peptide text is derived from it. [ ]: non-standard residue; d: D form. The star is where a group is joined. dPhe(4-NHCONH2) = NC(=O)Nc1ccc(C[C@@H](N)C(=O)O)cc1; Dihydroorotyl(S) = O=C1C[C@@H](C(=O)*)NC(=O)N1; dPhe(4-Cl) = N[C@H](Cc1ccc(Cl)cc1)C(=O)O; Phe(4-NH2) = Nc1ccc(C[C@H](N)C(=O)O)cc1; d2Nal = N[C@H](Cc1ccc2ccccc2c1)C(=O)O; Lys(iPr) = CC(C)NCCCC[C@H](N)C(=O)O; d3Pal = N[C@H](Cc1cccnc1)C(=O)O

Legend:
Assay type in all cases: toxicity, cell-based
U2OS = assay: Incucyte cell viability with U2OS; conditions: human, 10 µM, compound concentration 10 uM
HEK-293T = assay: Incucyte cell viability with HEK293T; conditions: human, 10 µM, compound concentration 10 uM
Fibroblast = assay: Incucyte cell viability with human fibroblast; conditions: 10 µM, compound concentration 10 uM
[1] = 0 h, replicate number 1, timepoint 0 hours
[2] = 0 h, replicate number 2, timepoint 0 hours
[3] = 6 h, replicate number 1, timepoint 6 hours
[4] = 12 h, replicate number 1, timepoint 12 hours
[5] = 12 h, replicate number 2, timepoint 12 hours
[6] = 18 h, replicate number 1, timepoint 18 hours
[7] = 18 h, replicate number 2, timepoint 18 hours
[8] = 24 h, replicate number 1, timepoint 24 hours
[9] = 24 h, replicate number 2, timepoint 24 hours
[10] = 6 h, replicate number 2, timepoint 6 hours
Also: unitless GR value; below 1 slowed growth and below 0 cell loss.

| SMILES | Growth Rate (U2OS; [1]) | Growth Rate (U2OS; [2]) | Growth Rate (U2OS; [3]) | Growth Rate (U2OS; [6]) | Growth Rate (U2OS; [7]) | Growth Rate (U2OS; [8]) | Growth Rate (HEK-293T; [1]) | Growth Rate (HEK-293T; [2]) | Growth Rate (HEK-293T; [3]) | Growth Rate (HEK-293T; [4]) | Growth Rate (HEK-293T; [6]) | Growth Rate (HEK-293T; [7]) | Growth Rate (HEK-293T; [8]) | Growth Rate (HEK-293T; [9]) | Growth Rate (Fibroblast; [1]) | Growth Rate (Fibroblast; [2]) | Growth Rate (Fibroblast; [3]) | Growth Rate (Fibroblast; [4]) | Growth Rate (Fibroblast; [8]) | Growth Rate (U2OS; [10]) | also measured |
| --- | --- | --- | --- | --- | --- | --- | --- | --- | --- | --- | --- | --- | --- | --- | --- | --- | --- | --- | --- | --- | --- |
| N#Cc1c(N)nc(SCc2csc(-c3ccc(Cl)cc3)n2)c(C#N)c1-c1ccc(OCCO)cc1 [CAPADENOSON] | 0.75 | 0.97 | 0.52 | 0.66 | 0.87 | 0.79 | 0.41 | 0.32 | 0.99 | 0.54 | 0.36 | 0.44 | 0.31 | 0.41 | 0.09 | -0.41 | -0.5 | -0.47 | -0.34 |  | Growth Rate (U2OS; [4]): 0.6; Growth Rate (U2OS; [5]): 0.81; Growth Rate (U2OS; [9]): 0.83; Growth Rate (HEK-293T; [10]): 0.69; Growth Rate (HEK-293T; [5]): 0.46; Growth Rate (Fibroblast; [10]): 0.85; Growth Rate (Fibroblast; [5]): 0.37; Growth Rate (Fibroblast; [6]): -0.41; Growth Rate (Fibroblast; [7]): 0.66; Growth Rate (Fibroblast; [9]): 0.54 |
| Cc1cc(Nc2ncc(Cl)c(Nc3ccccc3S(=O)(=O)C(C)C)n2)c(OC(C)C)cc1C1CCNCC1 [CERITINIB] | -0.86 | -0.57 | -0.94 | -0.66 | -0.52 | -0.58 |  |  | -0.87 | -0.62 | -0.45 | -0.48 | -0.35 | -0.38 |  |  | -1 | -0.99 | -0.88 | -0.91 | Growth Rate (U2OS; [4]): -0.82; Growth Rate (U2OS; [5]): -0.74; Growth Rate (U2OS; [9]): -0.42; Growth Rate (HEK-293T; [10]): -0.92; Growth Rate (HEK-293T; [5]): -0.66; Growth Rate (Fibroblast; [10]): -0.97; Growth Rate (Fibroblast; [5]): -0.78; Growth Rate (Fibroblast; [6]): -0.95; Growth Rate (Fibroblast; [7]): -0.6; Growth Rate (Fibroblast; [9]): -0.52 |
| Cl.Clc1cccc(Cl)c1NC1=NCCN1 [CLONIDINE HYDROCHLORIDE] |  | 0.55 | 0.87 | 1 |  |  | 0.99 | 0.43 | 0.49 | 0.74 | 0.59 | 0.58 | 0.85 | 0.63 | 0.82 |  | 0.94 |  | 0.9 | 0.91 | Growth Rate (HEK-293T; [5]): 0.54; Growth Rate (Fibroblast; [10]): 0.45; Growth Rate (Fibroblast; [5]): 0.46; Growth Rate (Fibroblast; [7]): 0.62; Growth Rate (Fibroblast; [9]): 0.47 |
| O=C(O)CCC/C=C\CC1C(O)CC(O)C1/C=C/C(O)COc1cccc(Cl)c1 (stereo not given) [CLOPROSTENOL] | -0.27 | -0.99 |  | 0.7 |  |  |  | 0.63 | 0.34 | 0.74 | 0.75 | 0.99 | 0.95 |  |  | 0.34 | -0.06 | 0.25 | 0.18 | 0.74 | Growth Rate (HEK-293T; [10]): 0.93; Growth Rate (Fibroblast; [6]): 0.2 |
| C[C@H]1[C@H]2CC[C@H]3[C@@H]4CC=C5C[C@@H](N(C)C)CC[C@]5(C)[C@H]4CC[C@]23CN1C [CONESSINE] |  |  |  |  |  |  |  | 0.74 | 0.67 | 0.85 | 0.82 |  | 0.91 |  |  | 0.49 | 0.11 | 0.18 | 0.52 | 0.8 | Growth Rate (U2OS; [5]): 0.89; Growth Rate (Fibroblast; [6]): 0.35 |
| CC1(COc2ccc3c(c2)ncn3-c2ccc3cccc(N4CCC(N)CC4)c3n2)COC1 [CRENOLANIB] |  |  |  | 0.87 | 0.92 | 0.54 | -0.26 | -0.11 | -0.46 | -0.32 | -0.28 | -0.21 | -0.22 | -0.19 | -0.8 | -0.75 |  |  |  |  | Growth Rate (U2OS; [9]): 0.8; Growth Rate (HEK-293T; [10]): -0.5; Growth Rate (HEK-293T; [5]): -0.23 |
| CC(C)C[C@@H](NC(=O)[C@H](Cc1ccccc1)NC(=O)CNC(=O)[C@@H](C)NC(=O)[C@@H](N)Cc1ccc(O)cc1)C(=O)O [DADLE] |  | 0.25 |  |  | 0.98 |  | 0.71 | 0.5 | 0.4 | 0.61 | 0.72 | 1 | 0.8 | 0.91 | 0.72 | -0.04 |  | 0.89 |  | 0.82 | Growth Rate (U2OS; [5]): 0.93; Growth Rate (U2OS; [9]): 0.99 |
| Cc1ccccc1N1CCN(CCc2nnc3n2CCCC3)CC1.Cl [DAPIPRAZOLE HYDROCHLORIDE] | 0.33 |  | 0.94 |  |  |  |  | -0.18 | 0.83 |  | 0.93 |  | 0.96 |  | -0.42 | 0.16 |  | 0.81 | 0.68 |  | Growth Rate (U2OS; [4]): 0.78; Growth Rate (Fibroblast; [10]): 0.85 |
| CC(=O)N[C@H](Cc1ccc2ccccc2c1)C(=O)N[C@H](Cc1ccc(Cl)cc1)C(=O)N[C@H](Cc1cccnc1)C(=O)N[C@@H](CO)C(=O)N[C@@H](Cc1ccc(NC(=O)[C@@H]2CC(=O)NC(=O)N2)cc1)C(=O)N[C@H](Cc1ccc(NC(N)=O)cc1)C(=O)N[C@@H](CC(C)C)C(=O)N[C@@H](CCCCNC(C)C)C(=O)N1CCC[C@H]1C(=O)N[C@H](C)C(N)=O [DEGARELIX] (Ac-[d2Nal][dPhe(4-Cl)][d3Pal]S[Phe(4-NH2)](Dihydroorotyl(S))[dPhe(4-NHCONH2)]L[Lys(iPr)]P[dA]-NH2) | -1 |  |  |  |  |  | -0.99 |  |  |  |  |  |  |  | -1 | -0.9 |  |  |  |  |  |
| C[C@@H]1C[C@H]2[C@@H]3CCC4=CC(=O)C=C[C@]4(C)[C@@]3(F)[C@@H](O)C[C@]2(C)[C@@]1(O)C(=O)CO [DEXAMETHASONE] | 0.07 | -1 |  |  | 0.95 |  | 0.4 |  |  | 0.98 | 0.86 |  | 0.7 | 0.99 | 0.73 |  | 0.88 |  |  | 0.65 |  |
| O=C(O)Cc1ccccc1Nc1c(Cl)cccc1Cl [DICLOFENAC] |  | -1 |  |  |  |  |  | 0.45 | 0.97 |  |  |  |  |  | 0.78 | 0.28 | 0.86 |  |  | 0.98 |  |
| CN1C[C@H](C(=O)N[C@]2(C)O[C@@]3(O)[C@@H]4CCCN4C(=O)[C@H](Cc4ccccc4)N3C2=O)C[C@@H]2c3cccc4[nH]cc(c34)C[C@H]21.CS(=O)(=O)O [DIHYDROERGOTAMINE MESYLATE] | 0.01 |  | 0.44 | 0.95 |  |  | -0.57 | -0.38 |  | 0.96 | 0.98 |  |  |  | -0.33 | -0.55 |  |  |  |  |  |
| C[S+](C)[O-] [DIMETHYL SULFOXIDE] | 0.71 | -0.56 | 0.96 | 0.94 | 0.98 | 0.98 | 0.62 | 0.67 |  |  | 0.93 |  |  |  |  | 0.18 | 0.29 | 0.81 |  | 0.93 | Growth Rate (Fibroblast; [5]): 0.86; Growth Rate (Fibroblast; [9]): 0.93 |
| O=c1ccn([C@@H]2O[C@H](COP(=O)([O-])OP(=O)([O-])OP(=O)([O-])OP(=O)([O-])OC[C@H]3O[C@@H](n4ccc(=O)[nH]c4=O)[C@H](O)[C@@H]3O)[C@@H](O)[C@H]2O)c(=O)[nH]1.[Na+].[Na+].[Na+].[Na+] [DIQUAFOSOL TETRASODIUM] | -0.05 |  | 0.17 | 0.88 | 0.92 | 0.93 | 0.43 | 0.4 | 0.69 | 0.73 | 0.72 |  | 0.85 | 0.81 | 0.39 |  |  |  | 0.89 |  | Growth Rate (U2OS; [4]): 0.47; Growth Rate (HEK-293T; [10]): 0.63; Growth Rate (Fibroblast; [10]): 0.61 |
